In ChEMBL document CHEMBL3046737, “Mode of Action of Cyanohydrins in Insects” (J Pestic Sci, 2005):
In brackets after ≈: the same amount, converted by molar mass.

How the values were obtained:
Musca domestica [1] = assay: Drug level in Musca domestica (house fly) assessed as cyanide ion level per gram of insect at L99 treated topically after 24 hr by spectrophotometric method; assay type: ADME, organism-based; settings: in vivo, topical_or_ocular
Musca domestica [2] = assay: Drug level in Musca domestica (house fly) at 1000 ug after 24 hr by spectrophotometric method; assay type: ADME, organism-based; settings: in vivo
Rhyzopertha dominica [3] = assay: Insecticidal activity against Rhyzopertha dominica after 24 hr; assay type: functional
Musca domestica [4] = assay: Insecticidal activity against Musca domestica (house fly) after 24 hr; assay type: functional
Rhyzopertha dominica [5] = assay: Drug level in Rhyzopertha dominica assessed as cyanide ion level per gram of insect at L99 treated as fumigation after 24 hr by spectrophotometric method; assay type: ADME, organism-based; settings: in vivo, other
Musca domestica [6] = assay: Drug level in Musca domestica (house fly) assessed as cyanide ion level per gram of insect at L99 treated as fumigation after 24 hr by spectrophotometric method; assay type: ADME, organism-based; settings: in vivo, inhaled_or_intranasal

Q: With `C=CC(O)C#N` (centres undefined) as the compound, how does the Drug uptake (Musca domestica [1]) read?
A: Its Drug uptake is 52 ppm.

Q: What about the Drug uptake (Musca domestica [2]) of the same compound?
A: Its Drug uptake is 53%.

Q: And the LC50 (Rhyzopertha dominica [3])?
A: Its LC50 is 0.37 µg/mL (≈ 4.45 µM).

Q: What about the LC50 (Musca domestica [4]) of the same compound?
A: The LC50 was 0.056 µg/mL (≈ 0.674 µM).

Q: And the Drug uptake (Rhyzopertha dominica [5])?
A: Its Drug uptake is 35 ppm.

Q: What about the Drug uptake (Musca domestica [6]) of the same compound?
A: The Drug uptake was 38 ppm.

Q: Which Drug uptake (Musca domestica [1]) does the source give for `C=CC(C#N)OC(C)=O` (centres undefined) [1-CYANOALLYL ACETATE] here?
A: The Drug uptake was 54 ppm.

Q: What about the Drug uptake (Musca domestica [2]) of the same compound?
A: Its Drug uptake is 53%.

Q: And the LC50 (Rhyzopertha dominica [3])?
A: Its LC50 is 0.37 µg/mL.

Q: What about the LC50 (Musca domestica [4]) of the same compound?
A: The LC50 was 0.26 µg/mL.

Q: What about the Drug uptake (Rhyzopertha dominica [5]) of the same compound?
A: The Drug uptake was 33 ppm.

Q: And the Drug uptake (Musca domestica [6])?
A: Its Drug uptake is 39 ppm.

Q: What does the source list for `CCC(C)(O)C#N` (centres undefined) [METHYLETHYL KETONE CYANOHYDRIN]?
A: LC50 (Rhyzopertha dominica [3]): 0.41 µg/mL (≈ 4.14 µM); LC50 (Musca domestica [4]): 0.09 µg/mL (≈ 0.908 µM)

Q: With `CC(C)(O)C#N` [DIMETHYLKETONE CYANOHYDRIN] as the compound, how does the Drug uptake (Musca domestica [1]) read?
A: The Drug uptake was 56 ppm.

Q: What about the Drug uptake (Musca domestica [2]) of the same compound?
A: Its Drug uptake is 53%.

Q: What about the LC50 (Rhyzopertha dominica [3]) of the same compound?
A: Its LC50 is 0.4 µg/mL (≈ 4.7 µM).

Q: And the LC50 (Musca domestica [4])?
A: The LC50 was 0.07 µg/mL (≈ 0.823 µM).

Q: And the Drug uptake (Rhyzopertha dominica [5])?
A: Its Drug uptake is 43 ppm.

Q: And the Drug uptake (Musca domestica [6])?
A: Its Drug uptake is 48 ppm.

Q: Which LC50 (Rhyzopertha dominica [3]) does the source give for `CCC(Cl)Cl` [DICHLOROPROPANE] here?
A: Its LC50 is 5.47 µg/mL (≈ 48.4 µM).

Q: And the LC50 (Musca domestica [4])?
A: The LC50 was 0.9 µg/mL (≈ 7.97 µM).

Q: How did the LC50 (Rhyzopertha dominica [3]) turn out when `COP(=O)(OC)OC=C(Cl)Cl` [DICHLORVOS] was run?
A: Its LC50 is 0.29 µg/mL (≈ 1.31 µM).

Q: And the LC50 (Musca domestica [4])?
A: Its LC50 is 0.011 µg/mL (≈ 0.0498 µM).
